Values joined by “and” are separate entries in the source; they are usually repeats but may differ in a detail not shown here. Identical values can stand only once.
Assays:
CD31- cells = experiment: Quantification of UCP1 protein by fluorescence immunohistochemistry in CD31- cells; format: cell-based, human; conditions: rosiglitazone 1 μM in MDM from day 0, 15 days
From the text: Using this method, UCP1 staining can be evaluated using automated high content imaging. GE Healthcare's InCell 1000 High Content Imager combines automated microscopy with high content image analysis software (InCell Developer Toolbox). The reference compound rosiglitazone was used to promote the differentiation of the CD31− cells and increase the expression of UCP1. Using a primary antibody that recognizes UCP1, Abcam ab23841, and a secondary antibody, Alexafluor 488 goat anti-rabbit antibody, we can quantify relative UCP1 levels per cell.
Referring to FIGS. 17A-17B, culturing and differentiation of CD31− cells into brown adipocytes were performed as described in Methods without (FIG. 17A) or with (FIG. 17B) rosiglitazone (1 μM) added to the adipogenic medium (MDM) from day 0. […] Alexafluor 488 goat anti-rabbit antibody was used to quantify relative UCP1 levels (green). […] UCP1 signal intensity was measured using the GE Developer Toolbox software on images collected on the InCell 1000 Automated High Content Imager. […]
Culturing and differentiation of CD31− cells into brown adipocytes were performed using adipogenic differentiation medium lacking (Minimal Differentiation Medium, MDM) or containing 1 μM rosiglitazone (Reference Differentiation Medium, RDM). […] As a readout, total intensity of UCP1 signal within the cell was used, normalized to cell number.

[1] = tested on: human fetal muscle CD34+ cells; experiment: UCP1 mRNA expression by quantitative RT-PCR in cultured fetal muscle CD34+ cells; format: cell-based; conditions: rosiglitazone 1 μM
Method: UCP1 mRNA expression in fetal muscle CD34+ cells could be modulated by drug treatment. Cell-permeating cAMP derivatives strongly stimulated (7 to 8-fold) UCP1 mRNA expression in both primary cultured and expanded cells. The effects of cAMP derivatives, 8-bromo-cAMP, 0.25 mM or (4-chlorophenylthio)-cAMP, 0.25 mM (cAMP) on UCP1 mRNA expression in CD34+ cells in primary culture (PC) or expanded up to passage 3 (P3) are shown in FIG. 3B. All the cells were grown for 4-6 days in EGM2 medium and then placed for 8-12 days in the adipogenic medium described under Materials and Methods. The results are means±s.e.m. of arbitrary values normalized using the corresponding cyclophilin A values. […]
Rosiglitazone, a PPARγ agonist, had no effect in primary culture cells but strongly stimulated (8-fold) UCP1 mRNA expression in expanded cells. The results are expressed as in FIG. 3B (**p<0.01, n=4-7). […]
Total cell RNA was prepared using the kit NucleoSpin® RNAII (Clontech, Palo Alto, Calif.), Extract-all solution (Eurobio, Courtaboeuf, France) or PureLink RNA Isolation Kit (Invitrogen #12183-016) and quantified by Biophotometry (Biophotometer, Eppendorf). […]
Arbitrary units were determined by normalizing target mRNA levels to cyclophilin mRNA levels (based on Cts), wherein the cyclophilin levels were first divided by 100,000 for ease of reference. […]

[2] = tested on: UCP1 mRNA in human skeletal muscle (vastus lateralis); experiment: UCP1 mRNA expression in skeletal muscle biopsies before and after rosiglitazone treatment in vivo
Method: Since the PPARγ agonist rosiglitazone was a strong inducer of UCP1 mRNA expression in muscle CD34+ cells in culture, the effect of this compound in vivo in humans was investigated. Vastus lateralis muscle biopsies from 7 obese patients with type 2 diabetes mellitus treated for the management of their metabolic syndrome with rosiglitazone were used. The biopsies were obtained before and after 8 weeks of treatment with rosiglitazone (2×4 mg per day). […] In that study rosiglitazone, concomitantly with the improvement in insulin sensitivity, increased the level of expression of UCP1 in muscle by about 1.6-fold. […] The results are the means±s.e.m. of arbitrary values normalized using the corresponding cyclophilin A values (n=7, *p<0.05 vs. control).
In FIG. 5, showing UCP1 mRNA levels in skeletal muscle biopsies from a patient group (n=7), “control” corresponds to levels before treatment, and “Rosi” corresponds to levels after treatment (8 weeks) with rosiglitazone. Being a longitudinal study the effect of rosiglitazone on UCP1 levels in each individual (comparison of individual values for the “control”-before and “Rosi”-after conditions) were determined. Starting with 25 ng cDNA (produced by reverse transcription of RNA) the threshold of detection (Ct) during real-time PCR was about 22 for UCP1 and about 18 for cyclophilin. The effect of rosiglitazone (UCP1 level at end of treatment vs. before treatment) were as follows: […]
Quantitative real-time PCR was performed using ABI rapid thermal cycler system and a SYBR Green PCR master mix (Applied Biosystems, Foster City, Calif.), or an ABI 7300 Real-time PCR instrument, a TaqMan Gene Expression Master Mix (Applied Biosystems #4369016) and TaqMan Gene Expression Pre-formulated Assays for human uncoupling protein-1 (GenBank NM_021833) (Applied Biosystems Assay ID Hs01084772_m1, TaqMan Gene Expression Assay part #4351372) and for human peptidylprolyl isomerase A “cyclophilin A” (GenBank NM_021130) (Applied Biosystems Assay ID Hs99999904_m1, TaqMan® Gene Expression Assay part #4448485). Cyclophilin A was used as a control to account for any variations due to the efficiency of the reverse transcription. The upstream and downstream oligonucleotide primers were chosen on both sides of an intron to prevent amplification of contaminating genomic DNA.
Primers used for real time quantitative PCR in human skeletal muscle are as follows:
Data are expressed as means±s.e.m. Significances were evaluated using the unpaired Student's t-test. A paired Student's t-test was used to determine the effects of rosiglitazone on human skeletal muscle UCP1 mRNA levels. Significances were set at p<0.05.

[3] = tested on: human fetal muscle-derived CD31- cells; experiment: UCP1 mRNA expression by quantitative RT-PCR in CD31- cells; format: cell-based; conditions: day 16 of differentiation; normalized with cyclophilin A; rosiglitazone 1 microM in MDM from day 0; BMP7 6 nM 2 days before day 0 then MDM
Method: UCP1 mRNA expression in human fetal muscle-derived CD31− cells at day 16 of differentiation were measured.
All the cells were grown for 3 days in proliferation medium (EGM2) and then (on day 0) placed for 16 days in adipogenic differentiation medium (Minimal Differentiation Medium, MDM). The “EGM2” cells were maintained in EGM2 medium all along. Rosiglitazone (1 microM) was added from day 0 and kept in the medium until the end of the study. BMP7 (6 nM) was added 2 days before day 0 and removed at day 0. Effects of differentiation medium (MDM vs. EGM2), rosiglitazone (MDM+rosi vs. MDM) and BPM7 (MDM+BMP7 vs. MDM) are shown as fold change (as compared to EGM2 cells) on UCP1 mRNA expression in human muscle-derived brown adipocyte progenitor cells (CD31-). […]
Quantitative real-time PCR was performed using ABI rapid thermal cycler system and a SYBR Green PCR master mix (Applied Biosystems, Foster City, Calif.), or an ABI 7300 Real-time PCR instrument, a TaqMan Gene Expression Master Mix (Applied Biosystems #4369016) and TaqMan Gene Expression Pre-formulated Assays for human uncoupling protein-1 (GenBank NM_021833) (Applied Biosystems Assay ID Hs01084772_m1, TaqMan Gene Expression Assay part #4351372) and for human peptidylprolyl isomerase A “cyclophilin A” (GenBank NM_021130) (Applied Biosystems Assay ID Hs99999904_m1, TaqMan® Gene Expression Assay part #4448485). […]

[4] = tested on: CD31+ cells (CD34+/CD45-/CD56-/CD146-/CD31+); experiment: Differentiation of CD31+ cells in adipogenic medium; format: cell-based, human; conditions: MDM with or without rosiglitazone or BMP7
Method: (§1) With the aim of further purifying the CD34+ cells in search for the purest physiological brown adipocyte progenitors, stroma-vascular cells were purified from two independent samples of human fetal skeletal muscle (18-19 weeks of gestation). Following the CD45, CD56, CD34, and CD146 sorting described above, an additional step of FACS sorting using an anti-CD31 antibody was performed. The cells were sorted based on the presence of the mature endothelial cell surface marker CD31 (CD31+) or absence of that marker (CD31-). It was hypothesized that the CD31− subpopulation may be a purer progenitor of human brown adipocytes. The CD31− cell fraction amounted to about 80% of the CD34+ cell population derived from skeletal muscle. For purpose of simplicity, CD34+/CD45−/CD56−/CD146−/CD31− are called “CD31−” cells [EMC309 (CD31−) and EMC314 (CD31−)]. CD34+/CD45−/CD56−/CD146−/CD31+ are called “CD31+” cells [EMC309 (CD31+) and EMC314 (CD31+)]. In addition, the myogenic progenitor cells expressing the cell surface antigen CD56 (CD56+) were also sorted and cultured: CD34+/CD45−/CD56+ (from EMC314) and CD45−/CD56+ (from EMC309) are called “CD56+” cells [EMC309 (CD56+) and EMC314 (CD56+)].
(§2) The sorted cells (CD31−, CD31+, and CD56+ cell populations) were grown under the same conditions as described above, i.e., 2-4 days in proliferation medium (EGM2) and 10-16 days in adipogenic differentiation medium. […]

CD56+ cells = experiment: Differentiation of CD56+ cells in adipogenic medium; format: cell-based, human; conditions: MDM with or without rosiglitazone or BMP7
Method: as §1, §2

[5] = tested on: CD31- cells (CD34+/CD45-/CD56-/CD146-/CD31-) from human fetal skeletal muscle; experiment: Differentiation of CD31- cells into adipocyte-like multilocular cells / brown adipocytes; format: cell-based
Method: as §1, §2

Row | Molecule | UCP1 intensity per nucleus (CD31- cells) | increase of level of UCP1 protein (CD31- cells; vs without rosiglitazone) | stimulation of UCP1 mRNA expression ([1]; expanded cells (P3), vs untreated control) | effect on UCP1 mRNA expression ([1]; primary culture cells (PC)) | increase of level of expression of UCP1 in muscle ([2]; 7 obese type 2 diabetes patients, 8 weeks, 2×4 mg per day, group mean, after vs before treatment) | increase of UCP1 level at end of treatment vs. before treatment ([2]; individual patients 1-7, 8 weeks rosiglitazone 2×4 mg per day) | UCP1 mRNA level after treatment, normalized to cyclophilin A ([2]; individual patients 1-7, after 8 weeks rosiglitazone) | UCP1 level at end of treatment relative to control (before treatment) ([2]; individual patients 1-7, control = 100%) | increase of UCP1 expression compared to EGM2 control condition [3] | differentiation of CD31+ cells into adipocyte-like multilocular cells [4] | differentiation of CD56+ cells into adipocyte-like multilocular cells (CD56+ cells) | differentiation of CD31- cells into brown adipocytes ([5]; 6 nM, before induction of differentiation (day -3 or -2 to day 0)) | fraction of CD31- cells differentiated into adipocyte-like multilocular cells ([5]; MDM containing the compound)
1 | CN(CCOc1ccc(CC2SC(=O)NC2=O)cc1)c1ccccn1 (centres unmarked) [rosiglitazone] | 105,542 | 7 fold | 8 fold | no effect | about 1.6 fold | 180% and 8% and 310% and 10% and 50% and 80% | 730 arbitrary units and 600 arbitrary units and 556 arbitrary units and 142 arbitrary units and 652 arbitrary units and 453 arbitrary units and 677 arbitrary units | 280% and 108% and 410% and 110% and 150% and 100% and 180% | 507-553 fold | – | – | – | –
2 | BMP7: recombinant human bone morphogenic protein-7 from R&D Systems (protein, UniProt P18075 293-431, looked up) Bone morphogenetic protein 7: STGSKQRSQNRSKTPKNQEALRMANVAENSSSDQRQACKKHELYVSFRDLGWQDWIIAPEGYAAYYCEGECAFPLNSYMNATNHAIVQTLVHFINPETVPKPCCAPTQLNAISVLYFDDSSNVILKKYRNMVVRACGCH | – | – | – | – | – | – | – | – | 78-127 fold | did not differentiate | did not differentiate | strongly promoted | virtually all

Source: patent publication US11299710B2, “Brown adipocyte progenitors in human skeletal muscle” (ENERGESIS PHARMACEUTICALS, INC., priority 2011, dated 2022)
